Tested on: 855422-203-R-J1-PDC spheroids with HUVEC/MSC, viability
Assay: Anticancer human tumor 855422-203-R-J1-PDC patient-derived bladder carcinoma cell line growth inhibition [PI3K]
Settings: for IC50: curve of first compound; for viability, T/C: stronger effect = lower value
Procedure, shortened: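 Combination activity was assessed by viability in multicellular tumor spheroids carrying HUVEC and MSC components. Agents were tested with PI3K inhibitors from a Cmax-based top dose (or 10 microM) downward in half-log increments.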

[1] = second compound 0.0316 µM, first compound 0.0316 µM
[2] = second compound 0.0316 µM, first compound 0.1 µM
[3] = second compound 0.0316 µM, first compound 0.316 µM
[4] = second compound 0.0316 µM, first compound 1 µM
[5] = second compound 0.0316 µM, first compound 3.16 µM
[6] = second compound 0.0316 µM, first compound 10 µM
[7] = second compound 0.1 µM, first compound 0.0316 µM
[8] = second compound 0.1 µM, first compound 0.1 µM
[9] = second compound 0.1 µM, first compound 0.316 µM
[10] = second compound 0.1 µM, first compound 1 µM
[11] = second compound 0.1 µM, first compound 3.16 µM
[12] = second compound 0.1 µM, first compound 10 µM
[13] = second compound 0.316 µM, first compound 0.0316 µM
[14] = second compound 0.316 µM, first compound 0.1 µM
[15] = second compound 0.316 µM, first compound 0.316 µM
[16] = second compound 0.316 µM, first compound 1 µM
[17] = second compound 0.316 µM, first compound 3.16 µM
[18] = second compound 0.316 µM, first compound 10 µM
[19] = second compound 1 µM, first compound 0.0316 µM
[20] = second compound 1 µM, first compound 0.1 µM
[21] = second compound 1 µM, first compound 0.316 µM
[22] = second compound 1 µM, first compound 1 µM
[23] = second compound 1 µM, first compound 3.16 µM
[24] = second compound 1 µM, first compound 10 µM
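Note: agents incubated with spheroids for one week before read-out.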
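Throughout, for viability, T/C: 100% = DMSO vehicle-treated control wells.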

C[C@@H](NC(=O)c1ncnc(N)c1Cl)c1ncc(C(=O)Nc2cc(C(F)(F)F)c(Cl)cn2)s1 + COc1c(OCCCN2CCOCC2)ccc2c3n(c(=NC(=O)c4cnc(N)nc4)nc12)CCN3
IC50 (second compound 0.00316 µM): > 10 µM
IC50 (second compound 0.01 µM): > 10 µM
IC50 (second compound 0.0316 µM): > 10 µM
IC50 (second compound 0.1 µM): < 0.0316 µM
IC50 (second compound 0.316 µM): < 0.0316 µM
IC50 (second compound 1 µM): < 0.0316 µM
viability, T/C (second compound 0.00316 µM, first compound 0.0316 µM): 93.8%
viability, T/C (second compound 0.00316 µM, first compound 0.1 µM): 91.3%
viability, T/C (second compound 0.00316 µM, first compound 0.316 µM): 104%
viability, T/C (second compound 0.00316 µM, first compound 1 µM): 97.4%
viability, T/C (second compound 0.00316 µM, first compound 3.16 µM): 109%
viability, T/C (second compound 0.00316 µM, first compound 10 µM): 113%
viability, T/C (second compound 0.01 µM, first compound 0.0316 µM): 80%
viability, T/C (second compound 0.01 µM, first compound 0.1 µM): 85.2%
viability, T/C (second compound 0.01 µM, first compound 0.316 µM): 88.5%
viability, T/C (second compound 0.01 µM, first compound 1 µM): 89.4%
viability, T/C (second compound 0.01 µM, first compound 3.16 µM): 108%
viability, T/C (second compound 0.01 µM, first compound 10 µM): 83%
viability, T/C [1]: 59.4%
viability, T/C [2]: 69.3%
viability, T/C [3]: 68.8%
viability, T/C [4]: 61.6%
viability, T/C [5]: 71.3%
viability, T/C [6]: 36.7%
viability, T/C [7]: 35.9%
viability, T/C [8]: 38.3%
viability, T/C [9]: 33.7%
viability, T/C [10]: 35.9%
viability, T/C [11]: 27.8%
viability, T/C [12]: 16.2%
viability, T/C [13]: 13.4%
viability, T/C [14]: 12.5%
viability, T/C [15]: 12.5%
viability, T/C [16]: 13.7%
viability, T/C [17]: 11.2%
viability, T/C [18]: 5.99%
viability, T/C [19]: 4.22%
viability, T/C [20]: 7.01%
viability, T/C [21]: 5.73%
viability, T/C [22]: 4.13%
viability, T/C [23]: 3.47%
viability, T/C [24]: 1.26%

Cn1cnc2c(F)c(Nc3ccc(Br)cc3Cl)c(C(=O)NOCCO)cc21 + CC(Nc1ccc2c(c1)OCCn1cc(N3C(=O)OCC3C(F)F)nc1-2)C(N)=O
IC50 (second compound 0.00316 µM): 2.28 µM
IC50 (second compound 0.01 µM): 2.15 µM
IC50 (second compound 0.0316 µM): 1.87 µM
IC50 (second compound 0.1 µM): 0.769 µM
IC50 (second compound 0.316 µM): < 0.00949 µM
IC50 (second compound 1 µM): < 0.00949 µM
viability, T/C (second compound 0.00316 µM, first compound 0.00949 µM): 91.7%
viability, T/C (second compound 0.00316 µM, first compound 0.03 µM): 83.8%
viability, T/C (second compound 0.00316 µM, first compound 0.0949 µM): 104%
viability, T/C (second compound 0.00316 µM, first compound 0.3 µM): 83.2%
viability, T/C (second compound 0.00316 µM, first compound 0.949 µM): 82.5%
viability, T/C (second compound 0.00316 µM, first compound 3 µM): 39.8%
viability, T/C (second compound 0.01 µM, first compound 0.00949 µM): 95.9%
viability, T/C (second compound 0.01 µM, first compound 0.03 µM): 89.1%
viability, T/C (second compound 0.01 µM, first compound 0.0949 µM): 97.7%
viability, T/C (second compound 0.01 µM, first compound 0.3 µM): 81.4%
viability, T/C (second compound 0.01 µM, first compound 0.949 µM): 80.9%
viability, T/C (second compound 0.01 µM, first compound 3 µM): 37.9%
viability, T/C (second compound 0.0316 µM, first compound 0.00949 µM): 81%
viability, T/C (second compound 0.0316 µM, first compound 0.03 µM): 83.4%
viability, T/C (second compound 0.0316 µM, first compound 0.0949 µM): 91.5%
viability, T/C (second compound 0.0316 µM, first compound 0.3 µM): 92.3%
viability, T/C (second compound 0.0316 µM, first compound 0.949 µM): 75%
viability, T/C (second compound 0.0316 µM, first compound 3 µM): 32.6%
viability, T/C (second compound 0.1 µM, first compound 0.00949 µM): 64.9%
viability, T/C (second compound 0.1 µM, first compound 0.03 µM): 67.1%
viability, T/C (second compound 0.1 µM, first compound 0.0949 µM): 67.3%
viability, T/C (second compound 0.1 µM, first compound 0.3 µM): 71.3%
viability, T/C (second compound 0.1 µM, first compound 0.949 µM): 46%
viability, T/C (second compound 0.1 µM, first compound 3 µM): 22.2%
viability, T/C (second compound 0.316 µM, first compound 0.00949 µM): 47.6%
viability, T/C (second compound 0.316 µM, first compound 0.03 µM): 45.7%
viability, T/C (second compound 0.316 µM, first compound 0.0949 µM): 47.3%
viability, T/C (second compound 0.316 µM, first compound 0.3 µM): 38.3%
viability, T/C (second compound 0.316 µM, first compound 0.949 µM): 28.6%
viability, T/C (second compound 0.316 µM, first compound 3 µM): 9.16%
viability, T/C (second compound 1 µM, first compound 0.00949 µM): 30.4%
viability, T/C (second compound 1 µM, first compound 0.03 µM): 28.1%
viability, T/C (second compound 1 µM, first compound 0.0949 µM): 25.3%
viability, T/C (second compound 1 µM, first compound 0.3 µM): 21.3%
viability, T/C (second compound 1 µM, first compound 0.949 µM): 16.1%
viability, T/C (second compound 1 µM, first compound 3 µM): 4.67%

C[C@@H](NC(=O)c1ncnc(N)c1Cl)c1ncc(C(=O)Nc2cc(C(F)(F)F)c(Cl)cn2)s1 + CC(Nc1ncnc2nc[nH]c12)c1cc2cccc(Cl)c2c(=O)n1-c1ccccc1
IC50 (second compound 0.0316 µM): > 10 µM
IC50 (second compound 0.1 µM): > 10 µM
IC50 (second compound 0.316 µM): > 10 µM
IC50 (second compound 1 µM): > 10 µM
IC50 (second compound 3.16 µM): > 10 µM
IC50 (second compound 10 µM): > 10 µM
viability, T/C [1]: 120%
viability, T/C [2]: 109%
viability, T/C [3]: 109%
viability, T/C [4]: 116%
viability, T/C [5]: 131%
viability, T/C [6]: 117%
viability, T/C [7]: 112%
viability, T/C [8]: 100%
viability, T/C [9]: 111%
viability, T/C [10]: 114%
viability, T/C [11]: 116%
viability, T/C [12]: 133%
viability, T/C [13]: 100%
viability, T/C [14]: 115%
viability, T/C [15]: 105%
viability, T/C [16]: 103%
viability, T/C [17]: 136%
viability, T/C [18]: 109%
viability, T/C [19]: 85.2%
viability, T/C [20]: 102%
viability, T/C [21]: 101%
viability, T/C [22]: 106%
viability, T/C [23]: 120%
viability, T/C [24]: 107%
viability, T/C (second compound 3.16 µM, first compound 0.0316 µM): 94.8%
viability, T/C (second compound 3.16 µM, first compound 0.1 µM): 108%
viability, T/C (second compound 3.16 µM, first compound 0.316 µM): 94.3%
viability, T/C (second compound 3.16 µM, first compound 1 µM): 93.3%
viability, T/C (second compound 3.16 µM, first compound 3.16 µM): 106%
viability, T/C (second compound 3.16 µM, first compound 10 µM): 82.7%
viability, T/C (second compound 10 µM, first compound 0.0316 µM): 82.7%
viability, T/C (second compound 10 µM, first compound 0.1 µM): 75.7%
viability, T/C (second compound 10 µM, first compound 0.316 µM): 93%
viability, T/C (second compound 10 µM, first compound 1 µM): 85.6%
viability, T/C (second compound 10 µM, first compound 3.16 µM): 69.6%
viability, T/C (second compound 10 µM, first compound 10 µM): 54.4%
